From the NIST ThermoML archive (doi:10.1007/s10765-008-0482-1)
“And” between values parts separate entries of the source, which are not always exact repeats. Equal entries are not always repeated.

Experiment: xn = mol fraction of the nth substance listed
Details: Fluid (supercritical or subcritical phases), Parallel plate method

CC [ethane] + O=C=O
Details	thermal conductivity
291.06 K, Amount density=2940 mol/m3, x2 = 0.5	0.0276 W/m/K
291.06 K, Amount density=6960 mol/m3, x2 = 0.5	0.099 W/m/K
291.07 K, Amount density=5650 mol/m3, x2 = 0.5	0.0554 W/m/K
291.07 K, Amount density=7530 mol/m3, x2 = 0.5	0.114 W/m/K
291.08 K, Amount density=435 mol/m3, x2 = 0.5	0.0191 W/m/K
291.11 K, Amount density=6960 mol/m3, x2 = 0.5	0.104 W/m/K
291.17 K, Amount density=6960 mol/m3, x2 = 0.5	0.11 W/m/K
291.18 K, Amount density=6960 mol/m3, x2 = 0.5	0.108 W/m/K
291.2 K, Amount density=7530 mol/m3, x2 = 0.5	0.144 W/m/K
291.24 K, Amount density=7730 mol/m3, x2 = 0.5	0.151 W/m/K
291.26 K, Amount density=7530 mol/m3, x2 = 0.5	0.159 W/m/K
291.29 K, Amount density=7530 mol/m3, x2 = 0.5	0.158 W/m/K
291.32 K, Amount density=7530 mol/m3, x2 = 0.5	0.21 W/m/K
291.33 K, Amount density=7530 mol/m3, x2 = 0.5	0.206 W/m/K
291.34 K, Amount density=435 mol/m3, x2 = 0.5	0.0192 W/m/K
291.34 K, Amount density=2940 mol/m3, x2 = 0.5	0.0274 W/m/K
291.34 K, Amount density=6960 mol/m3, x2 = 0.5	0.11 W/m/K
291.34 K, Amount density=7730 mol/m3, x2 = 0.5	0.203 W/m/K
291.35 K, Amount density=5650 mol/m3, x2 = 0.5	0.0542 W/m/K
291.35 K, Amount density=6960 mol/m3, x2 = 0.5	0.111 W/m/K
291.35 K, Amount density=7530 mol/m3, x2 = 0.5	0.172 W/m/K
291.5 K, Amount density=435 mol/m3, x2 = 0.5	0.0192 W/m/K
291.55 K, Amount density=2940 mol/m3, x2 = 0.5	0.0274 W/m/K
291.55 K, Amount density=7730 mol/m3, x2 = 0.5	0.128 W/m/K
291.57 K, Amount density=5650 mol/m3, x2 = 0.5	0.0553 W/m/K
291.57 K, Amount density=7530 mol/m3, x2 = 0.5	0.139 W/m/K
292.05 K, Amount density=6960 mol/m3, x2 = 0.5	0.099 W/m/K and 0.0913 W/m/K
292.05 K, Amount density=7530 mol/m3, x2 = 0.5	0.106 W/m/K
292.05 K, Amount density=7730 mol/m3, x2 = 0.5	0.102 W/m/K
292.08 K, Amount density=435 mol/m3, x2 = 0.5	0.0192 W/m/K
292.09 K, Amount density=5650 mol/m3, x2 = 0.5	0.0546 W/m/K
292.11 K, Amount density=2940 mol/m3, x2 = 0.5	0.0276 W/m/K
292.64 K, Amount density=6630 mol/m3, x2 = 0.74	0.0593 W/m/K
293.08 K, Amount density=6710 mol/m3, x2 = 0.26	0.0687 W/m/K
293.08 K, Amount density=7530 mol/m3, x2 = 0.5	0.0833 W/m/K
293.09 K, Amount density=6960 mol/m3, x2 = 0.5	0.0861 W/m/K
293.11 K, Amount density=7730 mol/m3, x2 = 0.5	0.0798 W/m/K
293.13 K, Amount density=2940 mol/m3, x2 = 0.5	0.0277 W/m/K
293.14 K, Amount density=5650 mol/m3, x2 = 0.5	0.052 W/m/K
293.15 K, Amount density=435 mol/m3, x2 = 0.5	0.0193 W/m/K
293.15 K, Amount density=877 mol/m3, x2 = 0.26	0.0213 W/m/K
293.15 K, Amount density=6630 mol/m3, x2 = 0.74	0.0578 W/m/K
293.15 K, Amount density=9120 mol/m3, x2 = 0.74	0.213 W/m/K
293.17 K, Amount density=9120 mol/m3, x2 = 0.74	0.16 W/m/K
293.24 K, Amount density=9120 mol/m3, x2 = 0.74	0.156 W/m/K
293.34 K, Amount density=9120 mol/m3, x2 = 0.74	0.135 W/m/K
293.53 K, Amount density=9120 mol/m3, x2 = 0.74	0.116 W/m/K
293.64 K, Amount density=3090 mol/m3, x2 = 0.26	0.0314 W/m/K
293.95 K, Amount density=9120 mol/m3, x2 = 0.74	0.101 W/m/K
294.32 K, Amount density=9120 mol/m3, x2 = 0.74	0.0842 W/m/K
294.72 K, Amount density=9120 mol/m3, x2 = 0.74	0.0824 W/m/K
294.96 K, Amount density=6710 mol/m3, x2 = 0.26	0.075 W/m/K
295.61 K, Amount density=7450 mol/m3, x2 = 0.25	0.0795 W/m/K
295.7 K, Amount density=6960 mol/m3, x2 = 0.5	0.0639 W/m/K
295.73 K, Amount density=6710 mol/m3, x2 = 0.26	0.0845 W/m/K
295.76 K, Amount density=7450 mol/m3, x2 = 0.25	0.0843 W/m/K
295.87 K, Amount density=7450 mol/m3, x2 = 0.25	0.0833 W/m/K
295.98 K, Amount density=7450 mol/m3, x2 = 0.25	0.0881 W/m/K
296.02 K, Amount density=7530 mol/m3, x2 = 0.5	0.0642 W/m/K
296.02 K, Amount density=7730 mol/m3, x2 = 0.5	0.0595 W/m/K
296.03 K, Amount density=9120 mol/m3, x2 = 0.74	0.0663 W/m/K
296.04 K, Amount density=5650 mol/m3, x2 = 0.5	0.047 W/m/K
296.05 K, Amount density=6630 mol/m3, x2 = 0.74	0.0507 W/m/K
296.05 K, Amount density=6710 mol/m3, x2 = 0.26	0.099 W/m/K and 0.101 W/m/K
296.06 K, Amount density=435 mol/m3, x2 = 0.5	0.0196 W/m/K
296.06 K, Amount density=6630 mol/m3, x2 = 0.74	0.0506 W/m/K
296.06 K, Amount density=8450 mol/m3, x2 = 0.25	0.112 W/m/K
296.07 K, Amount density=2940 mol/m3, x2 = 0.5	0.0278 W/m/K
296.07 K, Amount density=6960 mol/m3, x2 = 0.5	0.062 W/m/K
296.07 K, Amount density=7450 mol/m3, x2 = 0.25	0.0888 W/m/K
296.1 K, Amount density=6710 mol/m3, x2 = 0.26	0.0958 W/m/K
296.11 K, Amount density=8450 mol/m3, x2 = 0.25	0.11 W/m/K
296.12 K, Amount density=446 mol/m3, x2 = 0.25	0.0209 W/m/K
296.14 K, Amount density=2940 mol/m3, x2 = 0.25	0.0304 W/m/K
296.14 K, Amount density=10780 mol/m3, x2 = 0.25	0.0692 W/m/K
296.18 K, Amount density=5680 mol/m3, x2 = 0.25	0.075 W/m/K
296.18 K, Amount density=7490 mol/m3, x2 = 0.25	0.0914 W/m/K
296.19 K, Amount density=5680 mol/m3, x2 = 0.25	0.0751 W/m/K
296.2 K, Amount density=6830 mol/m3, x2 = 0.25	0.0909 W/m/K
296.21 K, Amount density=8450 mol/m3, x2 = 0.25	0.107 W/m/K
296.22 K, Amount density=6830 mol/m3, x2 = 0.25	0.0855 W/m/K
296.22 K, Amount density=7450 mol/m3, x2 = 0.25	0.0888 W/m/K and 0.099 W/m/K
296.24 K, Amount density=2940 mol/m3, x2 = 0.25	0.0312 W/m/K
296.24 K, Amount density=6710 mol/m3, x2 = 0.26	0.118 W/m/K
296.29 K, Amount density=5680 mol/m3, x2 = 0.25	0.0757 W/m/K
296.31 K, Amount density=7490 mol/m3, x2 = 0.25	0.102 W/m/K
296.34 K, Amount density=6710 mol/m3, x2 = 0.26	0.159 W/m/K
296.34 K, Amount density=7490 mol/m3, x2 = 0.25	0.107 W/m/K
296.36 K, Amount density=6710 mol/m3, x2 = 0.26	0.166 W/m/K
296.38 K, Amount density=6710 mol/m3, x2 = 0.26	0.147 W/m/K and 0.193 W/m/K and 0.172 W/m/K
296.39 K, Amount density=6710 mol/m3, x2 = 0.26	0.166 W/m/K
296.4 K, Amount density=6710 mol/m3, x2 = 0.26	0.18 W/m/K
296.4 K, Amount density=7450 mol/m3, x2 = 0.25	0.124 W/m/K
296.4 K, Amount density=7490 mol/m3, x2 = 0.25	0.114 W/m/K
296.41 K, Amount density=7450 mol/m3, x2 = 0.25	0.117 W/m/K
296.44 K, Amount density=6710 mol/m3, x2 = 0.26	0.167 W/m/K
296.44 K, Amount density=7490 mol/m3, x2 = 0.25	0.124 W/m/K and 0.13 W/m/K
296.45 K, Amount density=5680 mol/m3, x2 = 0.25	0.0719 W/m/K
296.46 K, Amount density=6830 mol/m3, x2 = 0.25	0.102 W/m/K
296.52 K, Amount density=2940 mol/m3, x2 = 0.25	0.0308 W/m/K
296.52 K, Amount density=6710 mol/m3, x2 = 0.26	0.135 W/m/K
296.52 K, Amount density=7450 mol/m3, x2 = 0.25	0.131 W/m/K
296.54 K, Amount density=7490 mol/m3, x2 = 0.25	0.166 W/m/K
296.56 K, Amount density=446 mol/m3, x2 = 0.25	0.0209 W/m/K
296.58 K, Amount density=7450 mol/m3, x2 = 0.25	0.157 W/m/K
296.62 K, Amount density=7450 mol/m3, x2 = 0.25	0.184 W/m/K
